One assay deals with PDE3. The conditions noted are these: Ruppert et al., Life Sci. 31, 2037-2043, 1982; cited from earlier work.
The test system of assay [1] is HeLa cells. Type of assay: cell-based. The conditions noted are these: co-treated with DNMDP, 48 hours. As for the experimental part: HeLa cells were co-treated with 30 nM DNMDP (the EC70 concentration) and 20 μM of each bioactive compound. Cell viability after 48-hour treatment was assessed by ATP consumption as described earlier.
1000 HeLa cells were plated in a 384-well plate in 40 μl of DMEM supplemented with 10% Fetal Bovine Serum and 1% Pen/Strep. 24 hours after plating, a compound-library of 1600 bioactive molecules (Pharmacon) was added at a concentration of 20 μM. In parallel to bioactive compound incubation, DNMDP was added to a final concentration of 30 nM and incubated for 48 hours. Cell viability was assessed as described in Compound library screening in NCI-H1734 and A549 cell lines.

The subject of assay [2] is HeLa cells. Nature of the assay: Caspase activity in HeLa cells (Caspase-Glo). Format: cell-based. The conditions noted are these: DNMDP treatment 48 hours. Here is the method:
1000 HeLa cells were plated in 384-well plate in 40 μl of corresponding growth media supplemented with 10% Fetal Bovine Serum. 24 hours after plating, indicated compounds were added at indicated concentrations and incubated for 48 hours. Caspase-Glo from Promega was added according to the manufacturers recommendations and luminescence was determined as described in Compound library screening in NCI-H1734 and A549 cell lines.

Another assay has as its system NCI-H1563 cells. Nature of the assay: Compound sensitivity testing in cell lines (48 h viability). Format: cell-based. The settings on record: Homo sapiens; NCI-H1563, 48 hours. As for the experimental part:
(§1) 1500 NCI-H1734 or 1000 A549 cells were plated in a 384-well plate in 40 μl of RPMI supplemented with 10% Fetal Bovine Serum and 1% Pen/Strep. 24 hours after plating, a compound-library of 1924 small molecules was added at a concentration of 10 μM. Staurosporine was used a positive control for cytotoxicity at a concentration of 10 μM, and DMSO was used a negative control at a concentration of 1%. All compounds were incubated for 48 hours with indicated small molecules. After 48 hours, 384-well plates were removed from the incubator and allowed to cool to room temperature for 20 minutes. Cell viability was assessed by adding 40 μl of a 25% CELLTITERGLO® (Promega) in PBS with a THERMO COMBI™ or multichannel-pipette and incubated for 10 minutes. The luminescence signal was read using a Perkin-Elmer EnVision. Viability percentage was calculated by normalizing to DMSO controls.
(§2) 1000 HeLa (DMEM), 1000 A549 (RPMI), 500 MCF-7 (DMEM), 4000 PC3 (F12-K), 1000 NCI-H2122 (RPMI) or 1500 NCI-H1563 (RPMI) cells were plated in a 384-well plate in 40 μl of corresponding growth media supplemented with 10% Fetal Bovine Serum. 24 hours after plating, indicated compounds were added at indicated concentrations and incubated for 48 hours. Cell viability was assessed as described in Compound library screening in NCI-H1734 and A549 cell lines.

The next assay deals with MCF7 cells. Described as above. Format: cell-based. The settings on record: Homo sapiens; MCF7, 48 hours. Here is the method:
as §1, §2

The test system of another assay is PC3 cells. Described as above. The conditions noted are these: Homo sapiens, PC-3; PC3, 48 hours. Type of assay: cell-based. Here is the method:
as §1, §2

For another assay, the system named is NCI-H2122 cells. The assay is described as above. Type of assay: cell-based. The settings on record: Homo sapiens; NCI-H2122, 48 hours. As for the experimental part:
as §1, §2

For the next assay, the system named is A549 cells. The assay is described as above. The conditions noted are these: Homo sapiens; A549, 48 hours. Type of assay: cell-based. Here is the method: as §1, §2
For assay [3], the system named is HeLa cells. Nature of the assay: Knockdown of SLFN12 expression using shRNA and testing for drug sensitivity. The conditions noted are these: 72 hours. Type of assay: cell-based. The source says: FIG. 15A is a scatterplot showing mRNA robust multichip average (RMA) expression values for PDE3A and SLFN12 from the Cancer Cell Line Encyclopedia (CCLE) database (a detailed genetic characterization of a large panel of human cancer cell lines) with sensitive cell lines indicated (Barretina et al., Nature 483, 603-607, 2012). 21 sensitive cell lines were binned in three groups of 7 based on area under the curve (AUC) rank. FIG. 15B is a bar graph showing results of a Fisher's exact test on DNMDP sensitivity of cell lines with high expression of both SLFN12 and PDE3A (RMA Log 2>5) compared to other cell lines. The top half of the bar on the right indicates melanoma cell lines. FIG. 15C is a scatterplot showing mRNA RPKM+1 expression values for PDE3A and SLFN12 from RNA sequencing data. FIG. 15D is a bar graph showing qPCR expression changes of SLFN12 in HeLa cells transduced with shSLFN12 normalized to GAPDH. FIG. 15E is a plot showing viability of HeLa cells transduced with indicated shRNA reagents and treated with indicated concentrations of DNMDP for 72 hours.
Constructs expressing shRNAs targeting SLFN12, or the control vector, were packaged into lentiviruses and delivered into HeLa cells by viral transduction. […] SLFN12-targeting shRNAs were used, all of which were obtained from the TRC (CloneIDs: TRCN0000152141 and TRCN0000153520). […]

Assay [4] relates to HeLa cells. Nature of the assay: PARP-cleavage immunoblotting. Type of assay: cell-based. The settings on record: 36 hours. Here is the method:
HeLa cells were treated with indicated concentration of DNMDP and staurosporine for 36 hours. HeLa cells were lysed and processed as described in Linker-affinity purification of molecular target of DNMDP and immunoblotting. Membranes were incubated with an antibody against PARP (1:1000, Cell Signaling #9532) and actin and subsequently imaged as described in Linker-affinity purification of molecular target of DNMDP and immunoblotting.
(A western blot detects proteins with antibodies after separation by electrophoresis.)

A value given as a limit tells only on which side of the number the result lay.

Broadly, the IC50 is the point on the concentration scale where inhibition reaches its midpoint. On to `COc1cc2c(cc1OC)-c1c/c(=N\c3c(C)cc(C)cc3C)n(C)c(=O)n1CC2` [trequinsin, 9,10-dimethoxy-3-methyl-2-(2,4,6-trimethylphenyl)imino-6,7-dihydropyrimido[6,1-a]isoquinolin-4-one], for which, in the assay on PDE3, the IC50 was 0.25 nM. For the same compound, the “RC50 (the concentration at which it achieved 50% rescue)” value in the assay with HeLa cells [1] is on record as below 1 nM.

In general, EC50 refers to the concentration needed to bring the measured effect to its halfway point. Read a high EC50 as a less potent agent. Turning to `CCN(CC)c1ccc(C2=NNC(=O)CC2C)cc1[N+](=O)[O-]` (stereo not shown) [DNMDP, 6-(4-(diethylamino)-3-nitrophenyl)-5-methyl-4,5-dihydropyridazin-3(2H)-one], in the assay on HeLa cells [2], the “Caspase activity (caspase-sensitive luciferase assay)” value was “detected”. For the same compound, the half-maximal effective concentration (EC50) is 10 to 100 nM in the assay on NCI-H1563 cells; above 1000 nM with MCF7 cells; above 1000 nM in the assay on PC3 cells; 10 to 100 nM with NCI-H2122 cells; above 1000 nM with A549 cells. In addition, the “sensitivity after reduction of SLFN12 expression (shRNA)” value in the assay with HeLa cells [3] is reported as “decreased sensitivity”. Besides, the PARP cleavage entry in the assay on HeLa cells [4] is on record as “detected”.

Source of the values: patent US11207320B2, “Compositions and methods for cancer expressing PDE3A or SLFN12” (The Broad Institute, Inc., priority 2015, dated 2021).
